# Like-named read-outs stand apart in the source and are kept apart here.
# How the values were obtained:
# Format in all cases: in vivo
# [1] = tested on: barnyardgrass (Echinochloa crus-galli); experiment: Test B pre-/postemergence plant response; settings: Echinochloa crus-galli, 240 h, read-out: Plant response rating, Barnyardgrass; for pest or weed control at 125 g/ha: 125 g ai/ha; for pest or weed control at 500 g/ha: 500 g ai/ha
# In short: (§1)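 Scoring used a 0–100 scale (100 = complete control) by visual comparison with untreated plants after approximately 10 days in the greenhouse. Compounds, in surfactant-containing non-phytotoxic solvent, were sprayed onto soil at planting or onto 2–10 cm seedlings.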
# corn (Zea mays) = experiment: Test B pre-/postemergence plant response; settings: Zea mays, 240 h; for Corn plant response rating (crop injury, 0 = no effect, 100 = complete kill) at 125 g/ha: 125 g ai/ha; for Corn plant response rating (crop injury, 0 = no effect, 100 = complete kill) at 500 g/ha: 500 g ai/ha
# In short: as §1
# [2] = tested on: giant foxtail (Setaria faberii); experiment: Test B pre-/postemergence plant response; settings: Setaria faberi, 240 h, read-out: Plant response rating, Foxtail, Giant; for pest or weed control at 125 g/ha: 125 g ai/ha; for pest or weed control at 500 g/ha: 500 g ai/ha
# In short: as §1
# [3] = tested on: pigweed (Amaranthus retroflexus); experiment: Test B pre-/postemergence plant response; settings: Amaranthus retroflexus, 240 h, read-out: Plant response rating, Pigweed; for pest or weed control at 125 g/ha: 125 g ai/ha; for pest or weed control at 500 g/ha: 500 g ai/ha
# In short: as §1
# [4] = tested on: wheat (Triticum aestivum); experiment: Test B pre-/postemergence plant response; settings: Triticum aestivum, 240 h, read-out: Plant response rating, Wheat; for plant injury at 125 g/ha: 125 g ai/ha; for plant injury at 500 g/ha: 500 g ai/ha
# In short: as §1
# [5] = tested on: barnyardgrass (Echinochloa crus-galli); experiment: Test C flooded paddy test plant response; settings: Echinochloa crus-galli; Flood, 250 g ai/ha; scale of 0 to 100 where 0 is no effect and 100 is complete control; 13 to 15 days; read-out: Barnyardgrass plant response rating
# In short: (§2)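 Plants grown to the 2-leaf stage; pots flooded to 3 cm above soil, test compounds applied directly to paddy water, depth maintained throughout. Greenhouse for 13 to 15 days, then visual rating versus controls on a 0–100 scale (0 no effect, 100 complete control).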
# [6] = tested on: ducksalad (Heteranthera limosa); experiment: Test C flooded paddy test plant response; settings: Heteranthera limosa; Flood, 250 g ai/ha; scale of 0 to 100 where 0 is no effect and 100 is complete control; 13 to 15 days; read-out: Ducksalad plant response rating
# In short: as §2
# rice (Oryza sativa) = experiment: Test C flooded paddy test plant response; settings: Oryza sativa; Flood, 250 g ai/ha; scale of 0 to 100 where 0 is no effect and 100 is complete control; 13 to 15 days; read-out: Rice plant response rating
# In short: as §2
# [7] = tested on: small-flower umbrella sedge (Cyperus difformis); experiment: Test C flooded paddy test plant response; settings: Cyperus difformis; Flood, 250 g ai/ha; scale of 0 to 100 where 0 is no effect and 100 is complete control; 13 to 15 days; read-out: Sedge, Umbrella plant response rating
# In short: as §2
# [8] = post-emergence, postemergence, 0 to 100 scale, 0 no effect, 100 complete control
# [9] = post-emergence, Postemergence, 0 to 100 scale (0 no effect, 100 complete control)
# [10] = pre-emergence, Preemergence, 0 to 100 scale where 0 is no effect and 100 is complete control
SMILES,"pest or weed control at 125 g/ha [1, 8] [%]","pest or weed control at 500 g/ha [1, 9] [%]","pest or weed control at 125 g/ha [1, 10] [%]","pest or weed control at 500 g/ha [1, 10] [%]","Corn plant response rating (crop injury, 0 = no effect, 100 = complete kill) at 125 g/ha (corn (Zea mays); [8]) [%]","Corn plant response rating (crop injury, 0 = no effect, 100 = complete kill) at 500 g/ha (corn (Zea mays); [9]) [%]","Corn plant response rating (crop injury, 0 = no effect, 100 = complete kill) at 125 g/ha (corn (Zea mays); [10]) [%]","Corn plant response rating (crop injury, 0 = no effect, 100 = complete kill) at 500 g/ha (corn (Zea mays); [10]) [%]","pest or weed control at 125 g/ha [2, 8] [%]","pest or weed control at 500 g/ha [2, 9] [%]","pest or weed control at 125 g/ha [2, 10] [%]","pest or weed control at 500 g/ha [2, 10] [%]","pest or weed control at 125 g/ha [3, 8] [%]","pest or weed control at 500 g/ha [3, 9] [%]","pest or weed control at 125 g/ha [3, 10] [%]","pest or weed control at 500 g/ha [3, 10] [%]","plant injury at 125 g/ha [4, 8] [%]","plant injury at 500 g/ha [4, 9] [%]","plant injury at 125 g/ha [4, 10] [%]","plant injury at 500 g/ha [4, 10] [%]",other results
"FC(F)(F)c1ccnc(-c2ccccc2Oc2ncc(Cl)cn2)c1 [Compound 25, 5-chloro-2-[2-[4-(trifluoromethyl)-2-pyridinyl]phenoxy]pyrimidine]",0,30,10,70,10,30,0,0,0,60,40,90,30,90,60,100,0,10,0,0,pest or weed control at 250 g/ha [5]: 0%; pest or weed control at 250 g/ha [6]: 30%; plant injury at 250 g/ha (rice (Oryza sativa)): 0%; pest or weed control at 250 g/ha [7]: 20%
"FC(F)(F)c1ccc(-c2ccccc2Oc2ncc(Cl)cn2)nc1 [Compound 27, 5-chloro-2-[2-[5-(trifluoromethyl)-2-pyridinyl]phenoxy]pyrimidine]",20,50,10,80,0,30,0,0,20,70,60,90,50,100,80,100,0,0,0,0,pest or weed control at 250 g/ha [5]: 0%; pest or weed control at 250 g/ha [6]: 30%; plant injury at 250 g/ha (rice (Oryza sativa)): 0%; pest or weed control at 250 g/ha [7]: 40%
"FCc1cc(-c2ccccc2Oc2ncc(Cl)cn2)no1 [Compound 32, 5-chloro-2-[2-[5-(fluoromethyl)-3-isoxazolyl]phenoxy]pyrimidine]",70,90,90,90,10,50,0,0,70,90,90,100,100,100,100,100,30,60,0,10,pest or weed control at 250 g/ha [5]: 0%; pest or weed control at 250 g/ha [6]: 90%; plant injury at 250 g/ha (rice (Oryza sativa)): 20%; pest or weed control at 250 g/ha [7]: 85%
"FC(F)(F)Oc1ccc(-c2ccccc2Oc2ncc(Cl)cn2)cc1 [Compound 42, 5-chloro-2-[[4′-(trifluoromethoxy)[1,1′-biphenyl]-2-yl]oxy]pyrimidine]",20,30,20,70,20,20,0,0,10,30,70,100,60,80,50,90,0,0,0,0,pest or weed control at 250 g/ha [5]: 0%; pest or weed control at 250 g/ha [6]: 0%; plant injury at 250 g/ha (rice (Oryza sativa)): 0%; pest or weed control at 250 g/ha [7]: 0%

# From patent publication US10131652B2, “Pyrimidinyloxy benzene derivatives as herbicides” (E. I. DU PONT DE NEMOURS AND COMPANY, priority 2014, dated 2018)
